# Test results taken from PMC5745756, “N,N-disubstituted azines attenuate LPS-mediated neuroinflammation in microglia and neuronal apoptosis via inhibiting MAPK signaling pathways” (BMC Neuroscience, 2017).
# Key:
# Format in all cases: cell-based, murine
# N2a cells [1] = assay: TNF-α induced N2a cytotoxicity, direct treatment
# Experimental: N2a cells were used as a representative neuronal cell line for the examination of apoptotic neuron viability using direct treatment of compound 3 with TNF-α activation as well as conditioned media (CM) from LPS-stimulated BV-2 cells treated with compound 3 [28]. This assay was performed following the methods described in our previous study, with slight modifications. To measure neuron viability, BV-2 cells were first seeded and treated with 100 ng/mL LPS in the presence or absence of compound 3. After 24 h, the CM was collected and transferred to N2a cells for a further 24 h. The cell viability of N2a cells was measured using the MTT assay. Well differentiated neuronal cells were used for the experimental purpose as shown in Additional file 1: Fig. S1.
# Here, we have investigated whether the compound 3 has any direct protective effects on microglia and neurons against LPS and TNF-α induced direct toxicity. As the aim of this study is to check the effectiveness of compound 3 against neurodegenerative conditions, here we checked the effect of this compound to protect microglial cells against β-amyloid induced cytotoxicity as shown in Fig. 5a. […] LPS treatment was unable to induce cellular toxicity to N2a cells (Fig. 5b). […] Compound 3 mediated neuroprotection in N2a cells is due to the inhibition of proinflammatory cytokines produced by LPS activated microglia. […]
# IL-6 = assay: ELISA of IL-6 in LPS-activated BV-2 culture medium; conditions: LPS 24 h
# Experimental: To measure TNF-α, IL-6, and PGE2, BV-2 cells were seeded in a 24-well plate at a density of 3 × 10^5 cells/well. The cells were treated with LPS (100 ng/mL) in the presence or absence of compound 3 for 24 h, and the media was collected and centrifuged. IL-6, TNF-α, and PGE2 produced in microglial culture supernatants […] were measured by competitive enzyme immunoassay kits (R&D systems, Minneapolis, MN, USA) in accordance with the manufacturer’s protocol.
# Fig. 2 Effect of compound 3 on LPS-induced iNOS and COX2 expression in BV-2 cells. BV-2 cells were pretreated with various concentrations (5, 10, and 20 µM) of compound 3 for 30 min and activated with 100 ng/mL LPS. After 6 h, the cells were collected for analysis of iNOS and COX-2 expression using western blot analysis (a–c). Similarly, LPS activation was made for 24 h as chronic BV2 activation and the iNOS and COX-2 expression was measured (d). α-Tubulin was used as the loading control. The densitometric analysis of bands was performed as described in the methods section. After 24 h, the culture medium was subsequently collected to measure the quantity of PGE2 (e), IL-6 (f), and TNF-α (g) using ELISA analysis. […]
# iNOS = assay: Western blot of LPS-induced iNOS expression in BV-2 cells
# Experimental: BV-2 cells were seeded in a 6-well plate at a density of 6 × 10^5 cells/well and exposed to LPS (100 ng/mL) in the presence or absence of compound 3 for required time. After treatment, cells were collected and lysed in cell lysis buffer (50 mM Tris–HCl, pH 8.0, 0.1% SDS, 150 mM NaCl, 1% NP-40, 0.02% sodium azide, 0.5% sodium deoxycholate, 100 µg/mL PMSF, and […]) for 24 h at 4 °C. The protein content was measured using a Bradford assay. Equal amounts of protein (30 µg) were separated using SDS-PAGE and transferred to a nitrocellulose membrane. […]
# Fig. 2 Effect of compound 3 on LPS-induced iNOS and COX2 expression in BV-2 cells. […] Similarly, LPS activation was made for 24 h as chronic BV2 activation and the iNOS and COX-2 expression was measured (d). α-Tubulin was used as the loading control. […] After 24 h, the culture medium was subsequently collected to measure the quantity of PGE2 (e), IL-6 (f), and TNF-α (g) using ELISA analysis. […]
# N2a cells [2] = assay: Annexin V/PI staining (FACS) of N2a cells given conditioned media from BV-2 cells; conditions: CM of compound at each concentration tested (5, 10, 20 µM)
# Experimental: An annexin V/PI apoptosis kit was used in accordance with the manufacturer’s instructions to quantify the percentage of cells undergoing apoptosis. First, BV-2 cells were incubated for 24 h with 5, 10, and 20 µM of compound 3 or LPS (100 ng/mL). Then, N2a cells were treated with the supernatant of the treated BV-2 cells and incubated. After 24 h, the cells were collected, washed twice with cold PBS, and re-suspended in binding buffer at a concentration of […]. Annexin V-FITC (5 µL) and PI (10 µL) were added, and the cells were incubated for 15 min at room temperature in the dark. Following incubation, 200 µL of binding buffer was added, and the cells were immediately analyzed by flow cytometry (FACSAriaIII; BD Biosciences, Franklin Lakes, NJ, USA). The flow cytometric analysis was performed using the Cell Quest software (BD Biosciences). The annexin V+/PI− cells and annexin V−/PI+ cells were used to identify apoptotic cells and necrotic cells, respectively. The procedure was repeated three times for each sample.
# Fig. 4 Neuroprotection of compound 3 in LPS-activated microglia in N2a cells. […] An annexin V/PI apoptosis kit was used to quantify the percentage of cells undergoing apoptosis and necrosis (x-axis, annexin V; y-axis, PI) by using FACS analysis. […]
smiles,measurement,setting,value
"COc1cc(/C=C/C=N/N=C/C=C/c2ccc(O)c(OC)c2)ccc1O [Compound 3, 4,4′-(1E,1′E,3E,3′E)-3,3′-(hydrazine-1,2-diylidene)bis(prop-1-ene-1-yl-3-ylidene)bis(2-methoxyphenol)]",Cell viability of N2a cells against TNF-α mediated toxicity,N2a cells [1],increased cell viability
same,IL-6 secretion,IL-6; 20 µM,noticeable activity
same,IL-6 secretion,IL-6; 5 and 10 µM,did not significantly inhibit
same,Expression of iNOS,"iNOS; 5, 10 and 20 µM, 30 min pretreatment, LPS 100 ng/mL 6 h",significantly reduced
same,"LPS induced iNOS activation, chronic",iNOS; 24 h chronic LPS activation,dramatically rescued
same,Concentration of apoptotic and necrotic N2a cells,N2a cells [2],decrease
